In BigSolDB 2.1:

Cl.OC(CCCN1CCCCC1)(c1ccccc1)c1ccccc1
solubility (mole fraction)
Settings | 278.15 K | 283.15 K | 288.15 K | 293.15 K | 298.15 K | 303.15 K | 308.15 K | 313.15 K | 318.15 K | 323.15 K
in DMAc | 0.00189 | 0.00221 | 0.00254 | 0.00305 | 0.00357 | 0.00407 | 0.00457 | 0.00525 | 0.00596 | 0.00697
in DMF | 0.00285 | 0.00316 | 0.00357 | 0.00408 | 0.00466 | 0.00515 | 0.00615 | 0.00688 | 0.00811 | 0.00923
in DMSO | – | – | – | 0.0121 | 0.0134 | 0.0148 | 0.0167 | 0.019 | 0.0213 | 0.0242
in NMP | 0.00427 | 0.00492 | 0.0056 | 0.00616 | 0.00725 | 0.00826 | 0.00921 | 0.0104 | 0.012 | 0.0141
in acetic acid | – | – | – | 0.00434 | 0.00601 | 0.00965 | 0.016 | 0.0263 | 0.0428 | 0.0632
in acetonitrile | 0.000127 | 0.00016 | 0.000224 | 0.000306 | 0.000412 | 0.000497 | 0.000623 | 0.000747 | 0.000892 | 0.00105
in ethanol | 0.00161 | 0.00196 | 0.00227 | 0.00275 | 0.00336 | 0.00405 | 0.00485 | 0.00585 | 0.00706 | 0.00867
in methanol | 0.00929 | 0.0109 | 0.0127 | 0.0152 | 0.0177 | 0.0207 | 0.0245 | 0.0285 | 0.0337 | 0.0397
in n-butanol | 0.000548 | 0.000685 | 0.000907 | 0.00113 | 0.00137 | 0.00169 | 0.00206 | 0.00247 | 0.00304 | 0.00398
in n-pentanol | 0.000228 | 0.000359 | 0.000562 | 0.00075 | 0.000981 | 0.00121 | 0.00164 | 0.00212 | 0.00265 | 0.00327
in n-propanol | 0.00115 | 0.00151 | 0.00199 | 0.0025 | 0.00255 | 0.00309 | 0.00364 | 0.00454 | 0.00575 | 0.00708
in water | 0.000935 | 0.001 | 0.00112 | 0.00125 | 0.00135 | 0.0015 | 0.00165 | 0.00173 | 0.00193 | 0.00216
